Assay results taken from US12576107B2, “Methods of treating chronic inflammatory diseases” (METIMEDI PHARMACEUTICALS CO., LTD., priority 2018, dated 2026).

Key:
6-OHDA injected rats = assay: Parkinson's disease model, desipramine and 6-OHDA injection; format: in vivo, Sprague-Dawley (SD) rats; conditions: 2 mg/kg daily subcutaneous 21 days; 6-OHDA rats
Experimental: Animals. […] Eight-week old male Sprague-Dawley (SD) rats were obtained from Samtako Co. (Osan, Gyeonggi-do, Republic of Korea) and bred under specific-pathogen-free (SPF) conditions. All animals were maintained in a 12-hour light/dark cycle at 22-25° C. with free access to food and water.
Desipramine (12.5 mg/kg; noradrenaline transporter blocker; Sigma Aldrich, St. Louis, USA) was dissolved in saline for intraperitoneal injection. 6-OHDA (20 μg/rat, Sigma Aldrich, St. Louis, USA) was dissolved in saline for intracranial injection.
Injection of desipramine and 6-OHDA. The animals were injected with desipramine into the abdominal cavity (intraperitoneal injection) 30 min before 6-OHDA injection. 30 min after Desipramine injection, the animals were placed in a small acrylic cage that was coupled with an anesthesia machine that allowed them to breathe freely under gaseous anesthesia (2% isoflurane, Spartanburg, SC, USA). […] The animal fur of head was shaved with an electric clipper, and the skin was swabbed with iodine. All the surgical materials disinfected with 70% ethanol. Hamilton syringe barrel inner space was cleaned with distilled water and 70% ethanol. The Hamilton syringe was placed in the syringe holder. […] The three coordinates (AP: −5.6, LM: 2.0, and DV: −7.6) on the manipulator (in mm) were read and used as the starting point. […]

[1] = test system: High cholesterol diet supplied ApoE-deficient mice (Atherosclerosis); assay: Vascular disease (atherosclerosis) model, high fat diet ApoE-deficient mice; format: in vivo, BALB/c ApoE^shi mice
Experimental: Animals. […] Fibe-week old male BALB/c ApoE^shi mice were obtained from Japan SLC Inc. (Shizuoka, Japan) and bred under specific-pathogen-free (SPF) conditions. All animals were maintained in a 12-hour light/dark cycle at 22-25° C. with free access to food and water.
Calcium lactate was purchased from Sigma Aldrich (St. Louis, MO, USA).
Animal model for vascular disease. BALB/c ApoE^shi species is used for spontaneous induction of vascular disease. In this investigation, a high fat (40%) diet was provided for 4 weeks to induce strong atherosclerosis.
Histological analysis. The thoracic aorta was transected, and a half of the aorta was fixed in 10% neutral buffer formalin fixative solution. Then, histological analysis was performed. Histological analysis was performed with H&E and Oil red O staining. Aortic wall thickness, atherosclerotic plaque areas, foam cell numbers, and lipidated regions were analyzed.
Statistical analysis. Statistical analysis was performed using SPSS statistics, and the results were analyzed using Student t-test. Histologic analysis was performed using the Mann-Whitney method. P<0.05 was considered statistically significant.

[2] = test system: collagen-induced rheumatoid arthritis mice; assay: Rheumatoid arthritis model, Type II collagen induction; format: in vivo, DBA1/J mice; conditions: 21 days after treatment
Experimental: Animals. […] Six-week old male DBA1/J mice were obtained from Japan SLC Inc. (Shizuoka, Japan) and bred under specific-pathogen-free (SPF) conditions. All animals were maintained in a 12-hour light/dark cycle at 22-25° C. with free access to food and water.
Preparation of agents. Two mg/mL Type II collagen was mixed with the same volume of complete Freund's adjuvant (CFA) for primary induction of rheumatoid arthritis. Two mg/mL Type II collagen was mixed with the same volume of incomplete Freund's adjuvant (IFA) for secondary induction of rheumatoid arthritis.
Primary induction: 0.1 mL of the mixed solution (Type II collagen+CFA) was injected subcutaneously into the area of 1.5 cm from the base of tail of mice. The administration site and depth were the same in all mice.
Secondary induction: 21 days after primary induction, 0.1 mL of the mixed solution (Type II collagen+IFA) was injected subcutaneously into the area of 1.5 cm from the base of tail of mice. The administration site and depth were the same in all mice.
Histological analysis. The mice foot and knee joint were dissected and fixed (4% paraformaldehyde) and decalcified for 2 days at 4° C. […] Mount with mounting medium.

[3] = 2 mg/kg daily subcutaneous, male ApoE-deficient mice, mean ± S.E.M.
[4] = male ApoE-deficient mice, n = 8, mean ± S.E.M.

In the case of `CC(O)C(=O)[O-].CC(O)C(=O)[O-].[Ca+2]` (stereo not shown) [calcium lactate], the “dopaminergic neuron (tyrosine hydroxylase staining)” value (6-OHDA injected rats) is reported as “Recovery”, the “ATHEROSCLEROTIC PLAQUE AREAS” value [1, 3] is reported as 0.10 ± 0.03^++ mm^2 and the “FOAM CELL NUMBERS” value [1, 3] is reported as 39.00 ± 10.13^+ cells/mm^2. For the same molecule, the “LIPID DEPOSITED REGIONS” value [1, 3] was 0.09 ± 0.03^++ mm^2, the “MEAN AORTA WALL THICKNESS” value [1, 3] was 85.83 ± 8.70^+ μm and the “atherosclerotic lesions of aorta (H&E, oil red O)” value ([1]; ApoE-deficient mice) was “decreased”. The “pathogenic factors cholesterol (TCHO), LDL cholesterol (LDL), triglycerides (TG), HDL-cholesterol (HDL)” value ([1]; ApoE-deficient mice, blood) was “not controlled”, the “HDL (clinical blood biochemistry)” value [1, 4] was 197.2 ± 3.7 mg/dL and the “LDL (clinical blood biochemistry)” value [1, 4] was 1537.1 ± 14.2 mg/dL. For the same molecule, the “TCHO (clinical blood biochemistry)” value [1, 4] was 2328.0 ± 56.7 mg/dL, the “TG (clinical blood biochemistry)” value [1, 4] was 54.8 ± 2.8 mg/dL and the “inflammatory edema in the toes and knee joint” value ([2]; 2 mg/kg daily subcutaneous) was “clearly decreased”. The “morphology of toes and knee joint vs. normal control” value [2] was “morphologically recovered”.
